Data set [1] is described as follows: Human liver microsome stability. The class given is in vitro ADME. Particulars: human, pooled human liver microsomes, pH 7.4, pooled human liver microsomes 0.5 mg/mL, 1 μM compound, NADPH 1 mM, pH 7.4, 37° C., 0-60 min; read-out: HLM Metabolism t1/2. As to the method:
Pooled human liver microsomes (0.5 mg/mL) was pre-incubated with 1 μM test compounds or control compounds (verapamil, warfarin and cerivastatin) in 0.1 M phosphate buffer pH 7.4 containing 1 mM MgCl2 at 37° C. The final concentration of DMSO and acetonitrile are 0.05% and 0.2%, respectively. All incubations are performed singularly for each compound. NADPH was added to initiate the reaction with the final concentration of 1 mM and the final incubation volume of 400 μL.
At 6 time points (0, 5, 10, 20, 40 and 60 min) reactions were stopped by the removal of 50 μL of the incubation mixture into plates containing acetonitrile at a of 1:3 (v:v). The plates were centrifuged at 3000 rpm for 10 min at 4° C. to precipitate the protein. Following protein precipitation, the sample supernatants were combined in cassettes of up to 8 compounds. The internal standard was added (1:1 supernatant to internal standard solution) and samples were analyzed using standard LC-MS conditions.
From a plot of ln peak area ratio (compound peak area/internal standard peak area) against time, the gradient of the line is determined. Subsequently, half-life is calculated using the equations below: […]

For another data set, the system named is HBV. Nature of the data set: Anti-HBV activity in HepG2.117 cell line (intracellular HBV DNA, real-time PCR). Format: cell-based, hepatitis B virus. Particulars: HepG2.117 cells, HBV replication induced, 3 days of treatment, intracellular HBV DNA by real-time PCR. On the procedure: The anti HBV activity was measured using the HepG2.117 cell line, a stable, inducibly HBV producing cell line, which replicates HBV in the absence of doxycycline (Tet-off system). The HepG2 cell line is available from ATCCR under number HB-8065. Transfection of the HepG2 cell line can be as described in Sun and Nassal 2006 Journal of Hepatology 45 (2006) 636-645 “Stable HepG2-and Huh7-based human hepatoma cell lines for efficient regulated expression of infectious hepatitis B virus”.
For the antiviral assay, HBV replication was induced, followed by a treatment with serially diluted compound in 96-well plates. After 3 days of treatment, the antiviral activity was determined by quantification of intracellular HBV DNA using real-time PCR and an HBV specific primer set and probe.

Data set [2] can be described thus: Cytotoxicity, ATPlite Luminescence Assay. Format: cell-based, human. Particulars: human, HepG2 or HepG2.117 cells, 3-days incubation unless marked with *, ATPlite viability. As to the method:
Cytotoxicity of the compounds was tested using HepG2 or HepG2.117 cells, incubated for 3 or 4 days in the presence of compounds. The viability of the cells was assessed using the PERKIN ELMER ATPlite Luminescence Assay System.”

[3] abbreviates: Hepatitis B virus, HepG2.117, 72 h.

For `CNC(=O)[C@@H]1CN(C(C)c2ccc(C(C)(C)O)cc2)C(=O)c2c3c(nn21)C[C@@H](C)N(C(=O)c1ccc(Cl)c(Cl)c1)C3` (single isomer, unassigned) [Compound 5B, (3R,7S)-2-(3,4-Dichlorobenzoyl)-9-((S*)-1-(4-(2-hydroxypropan-2-yl)phenyl)ethyl)-N,3-dimethyl-10-oxo-1,2,3,4,7,8,9,10-octahydropyrido[4′,3′:3,4]pyrazolo[1,5-a]pyrazine-7-carboxamide], in data set [1], the half-life at 1 μM was 1.44 h. Also, the EC50 in the data set on HBV (setting [3]) turned out to be 0.019 µM. The CC50 in data set [2] is greater than 50 µM.

As to `CNC(=O)[C@@H]1CN(Cc2ccc(S(=O)(=O)C3CC3)cc2)C(=O)c2c3c(nn21)C[C@@H](C)N(C(=O)c1ccc(Cl)c(C(F)(F)F)c1)C3` [Compound 21, (3R,7S)-2-(4-Chloro-3-(trifluoromethyl)benzoyl)-9-(4-(cyclopropylsulfonyl)benzyl)-N,3-dimethyl-10-oxo-1,2,3,4,7,8,9,10-octahydropyrido[4′,3′:3,4]pyrazolo[1,5-a]pyrazine-7-carboxamide], in data set [1], the half-life at 1 μM is greater than 3 h. Moreover, the EC50 with HBV (setting [3]) stood at 0.086 µM. In data set [2], the half-maximal cytotoxic concentration (CC50) is greater than 50 µM.

Turning to `CNC(=O)[C@@H]1CN([C@H](C)c2ccc(S(C)(=O)=O)cc2)C(=O)c2c3c(nn21)C[C@@H](C)N(C(=O)c1ccc(Cl)c(Cl)c1)C3` [Compound 18A, (3R,7S)-2-(3,4-Dichlorobenzoyl)-N,3-dimethyl-9-((R)-1-(4-(methylsulfonyl)phenyl)ethyl)-10-oxo-1,2,3,4,7,8,9,10-octahydropyrido[4′,3′:3,4]pyrazolo[1,5-a]pyrazine-7-carboxamide], in data set [1], the half-life at 1 μM was greater than 3 h. In addition, the response in the data set with HBV (setting [3]) was half-maximal at 0.597 µM (EC50). This compound also returned a half-maximal cytotoxic concentration (CC50) in data set [2] greater than 50 µM.

Consider `CNC(=O)[C@@H]1CN(C(C)c2ccccn2)C(=O)c2c3c(nn21)C[C@@H](C)N(C(=O)c1ccc(Cl)c(Cl)c1)C3` (single isomer, unassigned) [Compound 37A, (3R,7S)-2-(3,4-Dichlorobenzoyl)-N,3-dimethyl-10-oxo-9-((R*)-1-(pyridin-2-yl)ethyl)-1,2,3,4,7,8,9,10-octahydropyrido[4′,3′:3,4]pyrazolo[1,5-a]pyrazine-7-carboxamide], for which the half-life at 1 μM in data set [1] is greater than 3 h. The compound further returned an EC50 with HBV (setting [3]) of 0.089 µM. The CC50 in data set [2] is greater than 50 µM.

Take `CNC(=O)[C@@H]1CN(C(C)c2ccc(C)nn2)C(=O)c2c3c(nn21)C[C@@H](C)N(C(=O)c1ccc(Cl)c(Cl)c1)C3` (single isomer, unassigned) [Compound 1B, (3R,7S)-2-(3,4-Dichlorobenzoyl)-N,3-dimethyl-9-((S*)-1-(6-methylpyridazin-3-yl)ethyl)-10-oxo-1,2,3,4,7,8,9,10-octahydropyrido[4′,3′:3,4]pyrazolo[1,5-a]pyrazine-7-carboxamide]: the half-life at 1 μM in data set [1] is greater than 3 h. Moreover, the EC50 in the data set with HBV (setting [3]) came to 0.38 µM. In data set [2], the CC50 was greater than 50 µM.

With `CNC(=O)[C@@H]1CN(C(C)c2ccc(C(C)(C)O)cn2)C(=O)c2c3c(nn21)C[C@@H](C)N(C(=O)c1ccc(Cl)c(Cl)c1)C3` (single isomer, unassigned) [Compound 39A, (3R,7S)-2-(3,4-Dichlorobenzoyl)-9-((R*)-1-(5-(2-hydroxypropan-2-yl)pyridin-2-yl)ethyl)-N,3-dimethyl-10-oxo-1,2,3,4,7,8,9,10-octahydropyrido[4′,3′:3,4]pyrazolo[1,5-a]pyrazine-7-carboxamide], in data set [1], the half-life at 1 μM was greater than 3 h. Also, the concentration giving a half-maximal response (EC50) in the data set on HBV amounted to 1.68 µM. The CC50 in data set [2] is greater than 50 µM.

Regarding `CNC(=O)[C@@H]1CN([C@@H](C)c2cnc(C(F)(F)F)nc2)C(=O)c2c3c(nn21)C[C@@H](C)N(C(=O)c1ccc(Cl)c(Cl)c1)C3` [Compound 4B, (3R,7S)-2-(3,4-dichlorobenzoyl)-N,3-dimethyl-10-oxo-9-((S)-1-(2-(trifluoromethyl)pyrimidin-5-yl)ethyl)-1,2,3,4,7,8,9,10-octahydropyrido[4′,3′:3,4]pyrazolo[1,5-a]pyrazine-7-carboxamide], the half-life at 1 μM in data set [1] was greater than 3 h. The EC50 in the data set with HBV (setting [3]) was 0.16 µM. In addition, the CC50 in data set [2] is greater than 50 µM.

Take `CNC(=O)[C@@H]1CN([C@H](C)c2ccc(C(F)(F)F)nc2)C(=O)c2c3c(nn21)C[C@@H](C)N(C(=O)c1ccc(Cl)c(C(F)(F)F)c1)C3` [Compound 15A, (3R,7S)-2-(4-Chloro-3-(trifluoromethyl)benzoyl)-N,3-dimethyl-10-oxo-9-((R)-1-(6-(trifluoromethyl)pyridin-3-yl)ethyl)-1,2,3,4,7,8,9,10-octahydropyrido[4′,3′:3,4]pyrazolo[1,5-a]pyrazine-7-carboxamide]: the half-life at 1 μM in data set [1] is greater than 3 h. The concentration giving a half-maximal response (EC50) in the data set with HBV (setting [3]) is 0.086 µM. For the same compound, the CC50 in data set [2] was greater than 50 µM.

For the compound `CNC(=O)[C@@H]1CN([C@@H](C)c2ccc(OC(F)F)cc2)C(=O)c2c3c(nn21)C[C@@H](C)N(C(=O)c1ccc(Cl)c(Cl)c1)C3` [Compound 16B, (3R,7S)-2-(3,4-dichlorobenzoyl)-9-((S)-1-(4-(difluoromethoxy)phenyl)ethyl)-N,3-dimethyl-10-oxo-1,2,3,4,7,8,9,10-octahydropyrido[4′,3′:3,4]pyrazolo[1,5-a]pyrazine-7-carboxamide], the half-life at 1 μM in data set [1] was greater than 3 h. Also, the concentration giving a half-maximal response (EC50) with HBV (setting [3]) turned out to be 0.02 µM. This compound displayed a CC50 in data set [2] of 16.9 µM.

Take `CNC(=O)[C@@H]1CN([C@@H](C)c2cnc(C(F)(F)F)cn2)C(=O)c2c3c(nn21)C[C@@H](C)N(C(=O)c1ccc(Cl)c(Cl)c1)C3` [Compound 6B, (3R,7S)-2-(3,4-Dichlorobenzoyl)-N,3-dimethyl-10-oxo-9-((S)-1-(5-(trifluoromethyl)pyrazin-2-yl)ethyl)-1,2,3,4,7,8,9,10-octahydropyrido[4′,3′:3,4]pyrazolo[1,5-a]pyrazine-7-carboxamide]: the half-life at 1 μM in data set [1] was greater than 3 h. For the same compound, the EC50 in the data set on HBV (setting [3]) came to 0.092 µM. Moreover, the CC50 in data set [2] is greater than 50 µM.

With `CNC(=O)[C@@H]1CN(C(C)c2ccc(C(F)(F)F)nc2)C(=O)c2c3c(nn21)C[C@@H](C)N(C(=O)c1ccc(Br)c(Cl)c1)C3` (single isomer, unassigned) [Compound 10B, (3R,7S)-2-(4-bromo-3-chlorobenzoyl)-N,3-dimethyl-10-oxo-9-((S*)-1-(6-(trifluoromethyl)pyridin-3-yl)ethyl)-1,2,3,4,7,8,9,10-octahydropyrido[4′,3′:3,4]pyrazolo[1,5-a]pyrazine-7-carboxamide], the half-life at 1 μM in data set [1] was greater than 3 h. In the data set on HBV (setting [3]), this compound registered a concentration giving a half-maximal response (EC50) of 0.019 µM. The compound further displayed a CC50 in data set [2] of 46.8 µM.

For `CNC(=O)[C@@H]1CN(C(C)c2cccc(Cl)n2)C(=O)c2c3c(nn21)C[C@@H](C)N(C(=O)c1ccc(Cl)c(Cl)c1)C3` (single isomer, unassigned) [Compound 38A, (3R,7S)-9-((R*)-1-(6-Chloropyridin-2-yl)ethyl)-2-(3,4-dichlorobenzoyl)-N,3-dimethyl-10-oxo-1,2,3,4,7,8,9,10-octahydropyrido[4′,3′:3,4]pyrazolo[1,5-a]pyrazine-7-carboxamide], the half-life at 1 μM in data set [1] is greater than 3 h. The midpoint of the response in the data set with HBV (setting [3]), the EC50, lay at 0.068 µM. In data set [2], this compound yielded a CC50 greater than 50 µM.

As to `CNC(=O)[C@@H]1CN(C(C)c2ccc(-c3nnnn3C)cc2)C(=O)c2c3c(nn21)C[C@@H](C)N(C(=O)c1ccc(Cl)c(Cl)c1)C3` (single isomer, unassigned) [Compound 29A, (3R,7S)-2-(3,4-Dichlorobenzoyl)-N,3-dimethyl-9-((R*)-1-(4-(1-methyl-1H-tetrazol-5-yl)phenyl)ethyl)-10-oxo-1,2,3,4,7,8,9,10-octahydropyrido[4′,3′:3,4]pyrazolo[1,5-a]pyrazine-7-carboxamide], the half-life at 1 μM in data set [1] is greater than 3 h. Also, in the data set with HBV, the midpoint of the response, the EC50, lay at 0.82 µM. In data set [2], this compound yielded a 50% cytotoxic concentration (CC50) greater than 50 µM.

Turning to `CNC(=O)[C@@H]1CN(C(C)c2ccc(-n3cncn3)cn2)C(=O)c2c3c(nn21)C[C@@H](C)N(C(=O)c1ccc(Cl)c(Cl)c1)C3` (single isomer, unassigned) [Compound 40A, (3R,7S)-9-((R*)-1-(5-(1H-1,2,4-Triazol-1-yl)pyridin-2-yl)ethyl)-2-(3,4-dichlorobenzoyl)-N,3-dimethyl-10-oxo-1,2,3,4,7,8,9,10-octahydropyrido[4′,3′:3,4]pyrazolo [1,5-a]pyrazine-7-carboxamide], the half-life at 1 μM in data set [1] is greater than 3 h. Also, in the data set with HBV, a half-maximal response (EC50) required 0.28 µM. In data set [2], the 50% cytotoxic concentration (CC50) was greater than 50 µM.

Values taken from patent publication US20240279227A1, “FUSED HETEROCYCLIC DERIVATIVES” (Janssen Sciences Ireland Unlimited Company, priority 2021, published 2024).
